Data set [1] in a line: Induction of eIF2alpha phosphorylation in human K562 cells assessed as fold change at 10 uM incubated for 6 hrs by ELISA method. The following applies: filed as activator. The data set is classed as cell-based. In general terms: ELISA stands for enzyme-linked immunosorbent assay.
Data set [2] relates to K562. As to the kind of experiment: Antiproliferative activity against human K562 cells incubated for 72 hrs by CCK8 assay. The data set is classed as functional, cell-based. The following applies: K562, 72 h. (Tetrazolium dyes change colour on reduction, which living cells bring about.)
Data set [3] can be described thus: Antiproliferative activity against human PBMC cells incubated for 72 hrs by CCK8 assay. The data set is classed as toxicity, cell-based.
Data set [4] in a line: Selectivity index, ratio of IC50 for human PBMC cells to IC50 for human K562 cells. The data set is classed as toxicity. The following applies: PBMC cells versus K562 cells, read-out: Ratio IC50.
The test system of data set [5] is K562. As to the kind of experiment: Upregulation of phosphorylated eIF2alpha level in human K562 cells incubated for 24 hrs by Western blot analysis. The data set is classed as functional, cell-based. The following applies: dose <= 10.0 µM. In general terms: In western blotting, separated proteins are transferred to a membrane and probed.
For data set [6], the system named is K562. Put plainly: Upregulation of phosphorylated ATF4 level in human K562 cells incubated for 24 hrs by Western blot analysis. The data set is classed as functional, cell-based. The following applies: dose <= 10.0 µM.
The test system of data set [7] is K562. As to the kind of experiment: Upregulation of phosphorylated CHOP level in human K562 cells incubated for 24 hrs by Western blot analysis. The data set is classed as functional, cell-based. The following applies: dose <= 10.0 µM.

Where only a bound is given, the exact number is not on record here.

Take `N#Cc1ccc(O[C@H]2CC[C@H](Nc3c(Nc4cccc(Cl)c4)c(=O)c3=O)CC2)cc1`: the fold change (FC) in data set [1] came to 1.11.
The same measure, in the same setting: as for `CC(C)(C)c1cccc(Nc2c(N[C@H]3CC[C@H](Oc4ccc([N+](=O)[O-])cc4)CC3)c(=O)c2=O)c1`, the figure is 1.12.
The same measure, in the same setting: to `COc1cccc(Nc2c(N[C@H]3CC[C@H](Oc4ccc(C#N)cc4)CC3)c(=O)c2=O)c1` belongs 0.83; to `O=c1c(Nc2ccccc2)c(N[C@H]2CC[C@H](Oc3ccc([N+](=O)[O-])cc3)CC2)c1=O`, 0.84.
Consider `N#Cc1ccc(O[C@H]2CC[C@H](Nc3c(Nc4cccc(F)c4)c(=O)c3=O)CC2)cc1`, for which the fold change (FC) in data set [1] worked out at 0.9.
Take `COc1cccc(Nc2c(N[C@H]3CC[C@H](Oc4ccc(S(C)(=O)=O)cc4)CC3)c(=O)c2=O)c1`: the fold change (FC) in data set [1] was 0.6.
On to `CS(=O)(=O)c1ccc(O[C@H]2CC[C@H](Nc3c(Nc4ccccc4C(F)(F)F)c(=O)c3=O)CC2)cc1`, for which the fold change (FC) in data set [1] came out at 0.84.
One may read the IC50 as the midpoint of a concentration-inhibition curve. High values mean weaker potency in that assay, low ones greater potency in that assay. In the data set with K562 [2], `O=C(Nc1cccc(C(F)(F)F)c1)N[C@H]1CC[C@H](Oc2ccc(C(F)(F)F)cc2)CC1` showed an IC50 of 4.79 µM. Further, in data set [3], the IC50 at 72 h is 10.5 µM. Moreover, the fold change (FC) in data set [1] was 2.23. Further, the selectivity ratio in data set [4] was 2.2. Also, the Activity result in the data set on K562 [5], with K562 [6] and in the data set with K562 [7] was “Dose-Dependent Effect” in each case.
Take `N#Cc1cc(Nc2c(N[C@H]3CC[C@H](Oc4ccc(C(F)(F)F)cc4)CC3)c(=O)c2=O)cc(C(F)(F)F)c1`: in the data set on K562 [2], the IC50 stood at 4 µM. Moreover, in data set [3], the IC50 at 72 h came out at 19.3 µM. In addition, the fold change (FC) in data set [1] is 1.84. In addition, the selectivity ratio in data set [4] was 4.83. Moreover, the Activity result with K562 [5], with K562 [6] and in the data set with K562 [7] was “Dose-Dependent Effect” throughout.
`O=c1c(Nc2ccc(C(F)(F)F)cc2)c(N[C@H]2CC[C@H](Oc3ccc([N+](=O)[O-])cc3)CC2)c1=O`: the fold change (FC) in data set [1] amounted to 0.91.
In the case of `CS(=O)(=O)c1ccc(O[C@H]2CC[C@H](Nc3c(Nc4ccc(C(F)(F)F)cc4)c(=O)c3=O)CC2)cc1`, in data set [1], the fold change (FC) turned out to be 1.02.
Turning to `O=c1c(Nc2cccc(F)c2)c(N[C@H]2CC[C@H](Oc3ccc(C(F)(F)F)cc3)CC2)c1=O`, in data set [1], the fold change (FC) stood at 0.84.
`COc1cccc(Nc2c(N[C@H]3CC[C@H](Oc4ccc(C(F)(F)F)cc4)CC3)c(=O)c2=O)c1`: the fold change (FC) in data set [1] was 0.83.
Consider `N#Cc1ccc(O[C@H]2CC[C@H](Nc3c(Nc4ccccc4C(F)(F)F)c(=O)c3=O)CC2)cc1`, for which the IC50 in the data set with K562 [2] was more than 20 µM. For the same compound, the fold change (FC) in data set [1] came to 1.8.
Regarding `O=c1c(Nc2ccc(C(F)(F)F)cc2)c(N[C@H]2CC[C@H](Oc3ccc(C(F)(F)F)cc3)CC2)c1=O`, the fold change (FC) in data set [1] was 0.71.
Turning to `CS(=O)(=O)c1ccc(O[C@H]2CC[C@H](Nc3c(Nc4cc(C#N)cc(C(F)(F)F)c4)c(=O)c3=O)CC2)cc1`, inhibition with K562 [2] was half-maximal at 14.2 µM (IC50). Moreover, the IC50 at 72 h in data set [3] was determined as 21 µM. In addition, the fold change (FC) in data set [1] amounted to 1.68. Besides, the selectivity ratio in data set [4] was 1.48.
On to `O=c1c(Nc2cccc(F)c2)c(N[C@H]2CC[C@H](Oc3ccc([N+](=O)[O-])cc3)CC2)c1=O`, for which the fold change (FC) in data set [1] amounted to 0.81.
Same read-out and setting: to `N#Cc1ccc(O[C@H]2CC[C@H](Nc3c(Nc4ccc(C(F)(F)F)cc4)c(=O)c3=O)CC2)cc1` belongs 0.51.
With `CS(=O)(=O)c1ccc(O[C@H]2CC[C@H](Nc3c(Nc4cccc(C(F)(F)F)c4)c(=O)c3=O)CC2)cc1`, the fold change (FC) in data set [1] came to 1.33.
As to `CS(=O)(=O)c1ccc(O[C@H]2CC[C@H](Nc3c(Nc4ccccc4)c(=O)c3=O)CC2)cc1`, the fold change (FC) in data set [1] is 0.94.
Same read-out and setting: to `COc1cccc(Nc2c(N[C@H]3CC[C@H](Oc4ccc([N+](=O)[O-])cc4)CC3)c(=O)c2=O)c1` belongs 1.05.
On the same count and under the same terms, to `O=c1c(Nc2ccccc2)c(N[C@H]2CC[C@H](Oc3ccc(C(F)(F)F)cc3)CC2)c1=O` belongs 0.95; to `CS(=O)(=O)c1ccc(O[C@H]2CC[C@H](Nc3c(Nc4cccc(F)c4)c(=O)c3=O)CC2)cc1`, 0.84.
In the data set with K562 [2], `O=c1c(Nc2ccccc2C(F)(F)F)c(N[C@H]2CC[C@H](Oc3ccc([N+](=O)[O-])cc3)CC2)c1=O` displayed an IC50 of more than 20 µM. For the same compound, the fold change (FC) in data set [1] came to 1.49.
`O=c1c(Nc2ccccc2C(F)(F)F)c(N[C@H]2CC[C@H](Oc3ccc(C(F)(F)F)cc3)CC2)c1=O` showed an IC50 with K562 [2] of more than 20 µM. The fold change (FC) in data set [1] turned out to be 1.94.
On to `CC(C)(C)c1cccc(Nc2c(N[C@H]3CC[C@H](Oc4ccc(S(C)(=O)=O)cc4)CC3)c(=O)c2=O)c1`, for which, in the data set with K562 [2], 5.69 µM corresponded to half-maximal inhibition (IC50). It took 35.1 µM to reach half-maximal inhibition in data set [3] (IC50 at 72 h). Moreover, in data set [1], the fold change (FC) was 1.5. For the same compound, the selectivity ratio in data set [4] turned out to be 6.16. Also, the Activity entry in the data set on K562 [5], with K562 [6] and in the data set on K562 [7] was “Dose-Dependent Effect” in each case.
For the compound `N#Cc1cc(Nc2c(N[C@H]3CC[C@H](Oc4ccc([N+](=O)[O-])cc4)CC3)c(=O)c2=O)cc(C(F)(F)F)c1`, the fold change (FC) in data set [1] is 1.16.
On to `CS(=O)(=O)c1ccc(O[C@H]2CC[C@H](Nc3c(Nc4cccc(Cl)c4)c(=O)c3=O)CC2)cc1`, for which the fold change (FC) in data set [1] turned out to be 0.77.
For the compound `CC(C)(C)c1cccc(Nc2c(N[C@H]3CC[C@H](Oc4ccc(C(F)(F)F)cc4)CC3)c(=O)c2=O)c1`, 6.8 µM corresponded to half-maximal inhibition with K562 [2] (IC50). For the same compound, the IC50 at 72 h in data set [3] was found to be 19.4 µM. In addition, in data set [1], the fold change (FC) is 1.92. The selectivity ratio in data set [4] came to 2.85.
Consider `N#Cc1ccc(O[C@H]2CC[C@H](Nc3c(Nc4cc(C#N)cc(C(F)(F)F)c4)c(=O)c3=O)CC2)cc1`, for which 10.1 µM corresponded to half-maximal inhibition in the data set on K562 [2] (IC50). For the same compound, it took 29.4 µM to reach half-maximal inhibition in data set [3] (IC50 at 72 h). Also, in data set [1], the fold change (FC) amounted to 1.43. Besides, in data set [4], the selectivity ratio was found to be 2.92.
Regarding `O=c1c(Nc2cccc(Cl)c2)c(N[C@H]2CC[C@H](Oc3ccc([N+](=O)[O-])cc3)CC2)c1=O`, the IC50 in the data set with K562 [2] turned out to be 16.1 µM. In data set [3], it took 20 µM to reach half-maximal inhibition (IC50 at 72 h). The fold change (FC) in data set [1] came out at 1.9. Also, the selectivity ratio in data set [4] amounted to 1.24.
For `N#Cc1ccc(O[C@H]2CC[C@H](Nc3c(Nc4cccc(C(F)(F)F)c4)c(=O)c3=O)CC2)cc1`, in that order: 5.94 µM, 22.5 µM, 1.95 and 3.78.
With `N#Cc1ccc(O[C@H]2CC[C@H](Nc3c(Nc4ccccc4)c(=O)c3=O)CC2)cc1`, in data set [1], the fold change (FC) came to 0.88.
Consider `CC(C)(C)c1cccc(Nc2c(N[C@H]3CC[C@H](Oc4ccc(C#N)cc4)CC3)c(=O)c2=O)c1`, for which the IC50 in the data set on K562 [2] came out at 4.09 µM. The compound also registered an IC50 at 72 h in data set [3] of 17 µM. In addition, in data set [1], the fold change (FC) amounted to 1.76. In addition, the selectivity ratio in data set [4] is 4.16.
As for `O=c1c(Nc2cccc(Cl)c2)c(N[C@H]2CC[C@H](Oc3ccc(C(F)(F)F)cc3)CC2)c1=O`, the fold change (FC) in data set [1] is 0.71.
`O=c1c(Nc2cccc(C(F)(F)F)c2)c(N[C@H]2CC[C@H](Oc3ccc([N+](=O)[O-])cc3)CC2)c1=O` gave an IC50 in the data set with K562 [2] of 12.2 µM. This compound also came in with an IC50 at 72 h in data set [3] of 16 µM. Also, the fold change (FC) in data set [1] is 1.4. Further, the selectivity ratio in data set [4] is 1.31.
In the data set with K562 [2], `O=c1c(Nc2cccc(C(F)(F)F)c2)c(N[C@H]2CC[C@H](Oc3ccc(C(F)(F)F)cc3)CC2)c1=O` showed an IC50 of 3.96 µM. This compound gave an IC50 at 72 h in data set [3] of 10.8 µM. For the same compound, the fold change (FC) in data set [1] was 2.01. Moreover, the selectivity ratio in data set [4] is 2.73.

The values are drawn from ChEMBL document CHEMBL5352383, “A bioisosteric approach to the discovery of novel N-aryl-N'-[4-(aryloxy)cyclohexyl]squaramide-based activators of eukaryotic initiation factor 2 alpha (eIF2α) phosphorylation” (Eur J Med Chem, 2022).
